{"source": "patent US20060078622A1", "about": "“Pharmaceutical formulations containing microparticles or nanoparticles of a delivery agent” (priority 2004, published 2006)", "key": {"[1]": {"assay": "X-ray powder diffraction and Karl Fischer moisture content after milling", "assay_type": "physicochemical", "settings": "ball milled", "description": "SNAD was screened through a 35 mesh Tyler standard sieve. The SNAD was milled with a Glen Mills, Model S100 centrifugal ball mill (Clifton, N.J.) equipped with a 250 mL stainless steel grinding jar and 30 mm (440 c) diameter stainless steel balls was used. The process parameters investigated were (1) number of balls used, (2) duration of milling, (3) milling speed, and (4) milling jar total charge. A Malvern Mastersizer 2000 equipped with a Scirocco 2000 dry accessory was used for particle size determination. A Kratos XRD 6000 (version 4.1) X-ray powder diffractometer scanning over the 2θ range 5-40° 2θ was used for monitoring crystallinity changes. […] A Brinkmann 737 KF coulometer was used for moisture content determination while a Quantachrome Nova 3000 Series Surface Area Analyzer was used for specific surface area determination."}, "[2]": {"assay": "Particle size determination by laser diffraction (Malvern Mastersizer 2000)", "assay_type": "physicochemical", "description": "The terms “diameter” and “median particle size” are generally used to refer to the dimensions of particles, micro-beads, and granules. The “median particle size” or “diameter” was determined as follows for Examples 8, 9, 10.\nThe Malvern Mastersizer 2000 determines particle size by laser diffraction and model fitting. A well-dispersed sample in any two-phase system (e.g., powders, suspensions, or emulsions) is introduced into the path of a He—Ne laser focused with a lens of a length suitable for particle sizes present in the sample. The scattering pattern of particles in the laser path is measured by an array of detectors, with each detector measuring data from a particular range of angles.\nThe Malvern apparatus assumes that the particles being measured are perfect spheres. For non-spherical particles the resulting particle size distribution may be different from those obtained by methods based on others principles. The electronic measurements will often have to be accompanied by microscopic investigation to determine the type of particles being investigated. For irregularly shaped particles, the particle size data obtained from Mastersizer 2000 will be interpreted as the diameter of an imaginary sphere that is equivalent in volume to the measured particle. (Note: d(0.1) is the size of particle for which 10% of the sample is below this size, d(0.5) is the size of particle for which 50% of the sample is below this size, and d(0.9) is the size of particle for which 90% of the sample is below this size.\nGenerally, this apparatus measures one dimension of a, e.g., particle as it travels past a laser; i.e., it measures the length of a straight line through the particle. […] However, a measurement is taken of a number of particles and a median diameter or size is calculated. Thus, “size” or “diameter” figures are estimates of the median “size” or “diameter” of particles. Alternatively, “diameter” or “size” was measured by a sieve method described in Example 1. “Diameter” should not be read to necessarily imply a spherical shape or a circular dimension, though in certain embodiments, e.g., particles may have rounded edges or generally spherical shapes.\nSNAD was screened through a 35 mesh Tyler standard sieve. The SNAD was milled with a Glen Mills, Model S100 centrifugal ball mill (Clifton, N.J.) equipped with a 250 mL stainless steel grinding jar and 30 mm (440 c) diameter stainless steel balls was used. The process parameters investigated were (1) number of balls used, (2) duration of milling, (3) milling speed, and (4) milling jar total charge. A Malvern Mastersizer 2000 equipped with a Scirocco 2000 dry accessory was used for particle size determination. A Kratos XRD 6000 (version 4.1) X-ray powder diffractometer scanning over the 2θ range 5-40° 2θ was used for monitoring crystallinity changes. The diverging, scattering, and receiving slits were 1°, 1°, and 0.3 mm respectively. A Brinkmann 737 KF coulometer was used for moisture content determination while a Quantachrome Nova 3000 Series Surface Area Analyzer was used for specific surface area determination."}, "[3]": {"settings": "acid and salts; cited from earlier work"}, "[4]": {"settings": "in vivo; cited from earlier work"}, "[5]": {"settings": "ball milled, milling time of 120 minutes"}}}
{"smiles": "O=C([O-])CCCCCCCCCNC(=O)c1ccccc1O.[Na+]", "note": "[SNAD, monosodium salt of N-(10-[2-hydroxybenzoyl]-amino)decanoic acid]", "values": [{"measurement": "changes in moisture content on milling (Karl Fischer)", "setting": "[1]", "value": "no significant changes in moisture content"}, {"measurement": "crystallinity changes on milling (powder X-ray diffraction)", "setting": "[1]", "value": "did not result in crystallinity changes"}, {"measurement": "particle size d(0.9)", "setting": "[2]; ball milled at 300 rpm", "value": 62.9, "unit": "μm"}, {"measurement": "particle size d(0.1)", "setting": "[2]; ball milled, 2 balls", "value": 1.1, "unit": "μm"}, {"measurement": "particle size d(0.5)", "setting": "[2]; ball milled, 2 balls", "value": 12.0, "unit": "μm"}, {"measurement": "particle size d(0.9)", "setting": "[2]; ball milled, 2 balls", "value": 154.3, "unit": "μm"}, {"measurement": "particle size d(0.1)", "setting": "[2]; [5]", "value": 2.0, "unit": "μm"}, {"measurement": "particle size d(0.5)", "setting": "[2]; [5]", "value": 15.4, "unit": "μm"}, {"measurement": "particle size d(0.9)", "setting": "[2]; [5]", "value": 62.9, "unit": "μm"}, {"measurement": "particle size d(0.1)", "setting": "[2]; pre-screened (unmilled)", "value": 1.6, "unit": "μm"}, {"measurement": "particle size d(0.5)", "setting": "[2]; pre-screened (unmilled)", "value": 10.5, "unit": "μm"}, {"measurement": "particle size d(0.9)", "setting": "[2]; pre-screened (unmilled)", "value": 314.9, "unit": "μm"}]}
{"smiles": "O=C(O)CCCCCCCNC(=O)c1cc(Cl)ccc1O", "note": "[5 CNAC acid, N-(5-chlorosalicyloyl)-8-aminocaprylic acid]", "values": [{"measurement": "water solubility", "setting": "[3]", "value": "very water soluble"}]}
{"smiles": "O=C(O)CCCCCCCCCNC(=O)c1ccccc1O", "note": "[SNAD acid, N-(10-[2-hydroxybenzoyl]-amino) decanoic acid]", "values": [{"measurement": "absorbed by the gastro-intestinal tract", "setting": "[4]", "value": "greater than 90%"}]}
{"smiles": "O=C([O-])CCCCCCCNC(=O)c1ccccc1O.[Na+]", "note": "[SNAC, monosodium salt of N-(8-[2-hydroxybenzoyl]-amino)caprylic acid]", "values": [{"measurement": "particle size d(0.5)", "setting": "[2]; micronized, 2 balls at 200 rpm for 120 minutes", "value": 7.574, "unit": "μm"}]}
